By CC50 is commonly meant the concentration that lowers cell viability or growth by half. A word on the IC50: it is the concentration that inhibits the measured activity by half.

Results on one compound are retold here after patent publication US12611438B2, “Antiviral composition comprising a nucleolin-binding peptide” (ANYGEN CO., LTD., priority 2021, dated 2026).

Data set [1] in a line: MTT cytotoxicity assay, Vero cells. To be noted: African green monkey. (Formazan colour is commonly taken as a measure of viable cells.)
For another data set, the system named is SARS-COV-2. To be noted: 24 h.

Compound `CC[C@H](C)[C@H](NC(=O)[C@H](CCCNC(=N)N)NC(=O)[C@H](CC(C)C)NC(=O)[C@@H](NC(=O)[C@H](CCCNC(=N)N)NC(=O)[C@H](CCSC)NC(=O)[C@@H](NC(=O)[C@@H](N)CCCNC(=N)N)[C@@H](C)CC)[C@@H](C)CC)C(=O)N[C@@H](CC(C)C)C(=O)N[C@@H](CCCCN)C(=O)N[C@@H](CC(C)C)C(=O)N[C@@H](C)C(=O)N[C@@H](CCCNC(=N)N)C(=O)NCCCC[C@H](NC(=O)[C@H](CCCNC(=N)N)NC(=O)[C@H](C)NC(=O)[C@H](CC(C)C)NC(=O)[C@H](CCCCN)NC(=O)[C@H](CC(C)C)NC(=O)[C@@H](NC(=O)[C@H](CCCNC(=N)N)NC(=O)[C@H](CC(C)C)NC(=O)[C@@H](NC(=O)[C@H](CCCNC(=N)N)NC(=O)[C@H](CCSC)NC(=O)[C@@H](NC(=O)[C@@H](N)CCCNC(=N)N)[C@@H](C)CC)[C@@H](C)CC)[C@@H](C)CC)C(=O)N[C@@H](CSSC[C@H](NC(=O)[C@H](CCCCNC(=O)CCOCCOCCOCCOCCOCCOCCNC(=O)[C@H](CCCCN)NC(=O)[C@H](CC(C)C)NC(=O)[C@H](Cc1ccc(O)cc1)NC(=O)[C@@H](NC(=O)[C@H](CCSC)NC(=O)[C@H](C)NC(=O)CNC(=O)[C@H](Cc1c[nH]cn1)NC(=O)[C@@H](N)CCCNC(=N)N)C(C)C)NC(=O)CCOCCOCCOCCOCCOCCOCCNC(=O)[C@H](CCCCN)NC(=O)[C@H](CC(C)C)NC(=O)[C@H](Cc1ccc(O)cc1)NC(=O)[C@@H](NC(=O)[C@H](CCSC)NC(=O)[C@H](C)NC(=O)CNC(=O)[C@H](Cc1c[nH]cn1)NC(=O)[C@@H](N)CCCNC(=N)N)C(C)C)C(=O)O)C(=O)O` [AGM-330d-dCPP] showed a cytotoxic concentration (CC50) at 24 h in data set [1] of 7.73 µM. Besides, the half-maximal inhibitory concentration (IC50) with SARS-COV-2 came out at 5.2 µM.
